ChEMBL document CHEMBL3885861, “Open TG-GATES”

Species: Rattus norvegicus
Assay: Open TG-GATES - Regimen: Single
Assay type: toxicity, organism-based, Sprague-Dawley
Set-up: regimen Single, gender Male, age 6 weeks
Settings: in vivo, po, 2000 mg/kg, route gavage, dose level High; for APTT / Bas / Eos / Fbg / Hb / Ht / Lym / MCH / MCHC / MCV / Mono / Neu / PT / Plat / RBC / Ret / WBC: tissue Blood; for KIDNEY_L / KIDNEY_R / KIDNEY_TOTAL: tissue Kidney; for LIVER: tissue Liver; for A/G / ALP / ALT / AST / BUN / CRE / Ca / Cl / DBIL / GLC / IP / K / LDH / Na / PL / RALB / TBIL / TC / TG / TP / gamma-GTP: tissue Plasma

## NNC(=O)c1ccncc1 [ISONIAZID]
3 h
  TERMINAL_BW: 221 g
  APTT: 20.8 s
  Bas: 0%
  Eos: 1.2%
  Fbg: 218.2 mg/dL
  Hb: 13.8 g/dL
  Ht: 38.4%
  Lym: 73.8%
  MCH: 22.2 pg
  MCHC: 36%
  MCV: 61.7 fL
  Mono: 2%
  Neu: 22.2%
  PT: 12.3 s
  Plat: 117.2 x10_4/uL
  RBC: 621.8 x10_4/ul
  Ret: 7.9%
  WBC: 51.3 x10_2/uL
  KIDNEY_L: 1 g
  KIDNEY_R: 1 g
  KIDNEY_TOTAL: 1.9 g
  LIVER: 9.8 g
  A/G: 1.7
  ALP: 760.4 IU/L
  ALT: 31.4 IU/L
  AST: 66.4 IU/L
  BUN: 8.8 mg/dL
  CRE: 0.4 mg/dL
  Ca: 10.4 mg/dL
  Cl: 102.4 meq/L
  DBIL: 0.062 mg/dL
  GLC: 221.8 mg/dL
  IP: 10.2 mg/dL
  K: 4 meq/L
  LDH: 231.8 IU/L
  Na: 141.2 meq/L
  PL: 136 mg/dL
  RALB: 3.6 g/dL
  TBIL: 0.1 mg/dL
  TC: 72.8 mg/dL
  TG: 58.8 mg/dL
  TP: 5.7 g/dL
  gamma-GTP: 0.8 IU/L
6 h
  TERMINAL_BW: 217.4 g
  APTT: 19.1 s
  Bas: 0%
  Eos: 0.8%
  Fbg: 231 mg/dL
  Hb: 13.7 g/dL
  Ht: 38.1%
  Lym: 68.4%
  MCH: 22 pg
  MCHC: 36%
  MCV: 61 fL
  Mono: 1.6%
  Neu: 28.2%
  PT: 12.2 s
  Plat: 128.8 x10_4/uL
  RBC: 625.4 x10_4/ul
  Ret: 8.1%
  WBC: 60.7 x10_2/uL
  KIDNEY_L: 1 g
  KIDNEY_R: 1 g
  KIDNEY_TOTAL: 1.9 g
  LIVER: 9.6 g
  A/G: 1.5
  ALP: 774.2 IU/L
  ALT: 27.8 IU/L
  AST: 43.8 IU/L
  BUN: 8.8 mg/dL
  CRE: 0.5 mg/dL
  Ca: 10.4 mg/dL
  Cl: 104.2 meq/L
  DBIL: 0.062 mg/dL
  GLC: 222.4 mg/dL
  IP: 9.2 mg/dL
  K: 3.7 meq/L
  LDH: 185.6 IU/L
  Na: 141.8 meq/L
  PL: 151.2 mg/dL
  RALB: 3.5 g/dL
  TBIL: 0.1 mg/dL
  TC: 78.2 mg/dL
  TG: 47.8 mg/dL
  TP: 5.9 g/dL
  gamma-GTP: 1 IU/L
9 h
  TERMINAL_BW: 217 g
  APTT: 18.6 s
  Bas: 0.2%
  Eos: 1%
  Fbg: 230 mg/dL
  Hb: 14 g/dL
  Ht: 38.5%
  Lym: 70.4%
  MCH: 21.7 pg
  MCHC: 36.3%
  MCV: 59.8 fL
  Mono: 1.8%
  Neu: 26%
  PT: 12.5 s
  Plat: 131.2 x10_4/uL
  RBC: 644 x10_4/ul
  Ret: 7%
  WBC: 61.3 x10_2/uL
  KIDNEY_L: 1 g
  KIDNEY_R: 1 g
  KIDNEY_TOTAL: 2.1 g
  LIVER: 9 g
  A/G: 1.7
  ALP: 823.6 IU/L
  ALT: 23.8 IU/L
  AST: 40.8 IU/L
  BUN: 8.8 mg/dL
  CRE: 0.4 mg/dL
  Ca: 10.5 mg/dL
  Cl: 104 meq/L
  DBIL: 0.066 mg/dL
  GLC: 211 mg/dL
  IP: 9.2 mg/dL
  K: 3.6 meq/L
  LDH: 195.4 IU/L
  Na: 142.4 meq/L
  PL: 151.8 mg/dL
  RALB: 3.7 g/dL
  TBIL: 0.1 mg/dL
  TC: 76.2 mg/dL
  TG: 78 mg/dL
  TP: 5.9 g/dL
  gamma-GTP: 1 IU/L
24 h
  TERMINAL_BW: 212.5 g
  APTT: 18.8 s
  Bas: 0.2%
  Eos: 0.8%
  Fbg: 196 mg/dL
  Hb: 14.7 g/dL
  Ht: 40.4%
  Lym: 75.4%
  MCH: 22.4 pg
  MCHC: 36.4%
  MCV: 61.6 fL
  Mono: 3.4%
  Neu: 19.6%
  PT: 14.4 s
  Plat: 152.8 x10_4/uL
  RBC: 656.4 x10_4/ul
  Ret: 2.8%
  WBC: 41.4 x10_2/uL
  KIDNEY_L: 1.1 g
  KIDNEY_R: 1.1 g
  KIDNEY_TOTAL: 2.2 g
  LIVER: 9.5 g
  A/G: 1.8
  ALP: 761.4 IU/L
  ALT: 12 IU/L
  AST: 25.8 IU/L
  BUN: 14 mg/dL
  CRE: 0.5 mg/dL
  Ca: 10.1 mg/dL
  Cl: 103.8 meq/L
  DBIL: 0.06 mg/dL
  GLC: 205.4 mg/dL
  IP: 8.4 mg/dL
  K: 3.9 meq/L
  LDH: 203.8 IU/L
  Na: 143 meq/L
  PL: 114.2 mg/dL
  RALB: 3.5 g/dL
  TBIL: 0.1 mg/dL
  TC: 47 mg/dL
  TG: 90 mg/dL
  TP: 5.5 g/dL
  gamma-GTP: 0.8 IU/L
